The values that follow come from PMC6222558, “Synthesis and Evolution of Berberine Derivatives as a New Class of Antiviral Agents against Enterovirus 71 through the MEK/ERK Pathway and Autophagy” (Molecules : A Journal of Synthetic Chemistry and Natural …, 2018).

Data set [1] has as its system EV71 JS-52 strain (genotype C4). Put plainly: CPE inhibition assay for anti-EV71, JS-52 strain. Type of data set: cell-based, enterovirus 71 (EV71). The note with it: Enterovirus A, EV71; Vero cells; CPE; calculated on the organic part; n = 3; read-out: JS-52 Strain IC50. On the procedure:
(§1) Thus, all newly synthesized BBR analogues were screened for their anti-EV71 potencies in African green monkey kidney (Vero) cells taking BBR as the positive control. EV71 strains used in the present study include different genotype strains, such as H strain (VR-1432, genotype C2), BrCr strain (VR-1775, genotype A), and JS-52 and SHZH98 (genotype C4). The potency against EV71 strains above mentioned of each tested compound was evaluated by the combination of its IC50 and selectivity index (SI) value as the important therapeutic indication.
(§2) Vero cells were purchased from the American Type Culture Collection (ATCC, […], MD, USA), and were cultured in Minimum Essential Medium (MEM) supplemented with 10% fetal bovine serum (FBS) (GIBCO, Grand Island, NY, USA) and antibiotics (100 U/mL penicillin and […] streptomycin) at 37 °C in a 5% CO2 incubator. EV71 strain SHZH98 isolated from the throat swab sample of an HFMD case occurring in 1998 in China was kindly provided by Dr. Qi Jin (Institute of Pathogen Biology, Chinese Academy of Medical Science and Peking Union Medical School, Beijing, China), and JS-52 strain was a kind gift from Dr. Xiangzhong Ye (Beijing Wantai Biological Pharmacy Enterprise Co., Ltd., Beijing, China). The EV71 BrCr and H strains were purchased from the ATCC. All of EV71 strains were passaged in Vero cells.
(§3) The anti-EV71 activities of all tested compounds were detected by the virus-induced CPE assay. Briefly, cells (3 × 10^4 cells/well) were plated into 96-well culture plates and incubated for 16 h. Then, remove the medium and infected cells with EV71 of 100 × TCID50 (50% tissue culture infective doses) in serum-free medium for 1 h at 37 °C. After that, the unbound viruses were removed and various concentrations of tested compounds were supplemented for incubation of another 72 h. […] TC50 defined as the concentration that leads to the 50% of CPE which determined by the same method in 72 h. In addition, the cells were stained the cells were colored with 0.5% crystal violet in 20% ethanol for 15 min at room temperature and the cells were imaged after rinsed with PBS.

Data set [2] deals with EV71 BrCr strain (VR-1775, genotype A). Nature of the data set: CPE inhibition assay for anti-EV71, BrCr strain. The data set is classed as cell-based, enterovirus 71 (EV71). The note with it: Enterovirus A, EV71; Vero cells; CPE; calculated on the organic part; n = 3; read-out: BrCr Strain IC50. On the procedure:
as §1, §2, §3

In the next data set the test system is Vero cells. Put plainly: Cytotoxicity assay (CCK) in Vero cells. The data set is classed as cell-based, African green monkey. Particulars: African green monkey, 48 h. On the procedure: as §2
Cytotoxicity of all target compounds in Vero cells was analyzed by CCK (TransGen Biotech, Beijing, China) assay. In brief, cells in exponential phase (3 × 10^4 cells/well) were seeded into 96-well culture plates and incubated overnight. Then, the medium was removed and different concentrations of all target compounds were applied in duple. After 48 h incubation, the cytotoxicity of all target compounds was determined by CCK assay. The signals were read at 450 nm on Enspire (Perkin Elmer, Waltham, MA, USA). The TC50 was defined as the concentration that inhibits 50% cellular growth in comparison with the controls. It is calculated by the Reed and Muench method.

Data set [3] has as its system EV71 H strain (VR-1432, genotype C2). Nature of the data set: CPE inhibition assay for anti-EV71, H strain. The data set is classed as cell-based, enterovirus 71 (EV71). Particulars: Vero cells; for IC50: Enterovirus A, EV71, CPE, calculated on the organic part, n = 3, read-out: H Strain IC50; for anti-EV71 activity against H strain, in words: compared with BBR. On the procedure: as §1, §2, §3

The test system of data set [4] is EV71 SHZH98 strain (genotype C4). Put plainly: CPE inhibition assay for anti-EV71, SHZH98 strain. The data set is classed as cell-based, enterovirus 71 (EV71). The note with it: Enterovirus A, EV71; Vero cells; CPE; calculated on the organic part; n = 3; read-out: SHZH98 Strain IC50. On the procedure: as §1, §2, §3

Take `CCOC(=O)COc1c(OC)ccc2cc3[n+](cc12)CCc1cc2c(cc1-3)OCO2` [2a, 2,3-Methylenedioxy-9-ethyloxyformylmethylenoxy-10-methoxy protoberberine chloride]: the IC50 in data set [1] was 45.5 µM; in data set [2], 32.3 µM; in data set [3], 48.3 µM; in data set [4], 60.4 µM. Moreover, the “TC50 (median toxic concentration)” value in the data set with Vero cells turned out to be 223 µM.

On to `COc1ccc2cc3[n+](cc2c1OCC(=O)OCC(C)C)CCc1cc2c(cc1-3)OCO2` [2b, 2,3-Methylenedioxy-9-isobutyloxyformylmethylenoxy-10-methoxy protoberberine chloride], for which the IC50 is 5.73 µM in data set [1], 2.04 µM in data set [2], greater than 5.34 µM in data set [3] and 5.46 µM in data set [4]. The “TC50 (median toxic concentration)” value in the data set on Vero cells turned out to be 22.3 µM.

As to `COc1ccc2cc3[n+](cc2c1OCC(=O)C(C)(C)C)CCc1cc2c(cc1-3)OCO2` [2c, 2,3-Methylenedioxy-9-pivalylmethylenoxy-10-methoxy protoberberine chloride], the IC50 in data set [1] is 7.26 µM; in data set [2], 4.26 µM; in data set [3] it was 13.8 µM; in data set [4], 8.59 µM. For the same molecule, in the data set on Vero cells, the “TC50 (median toxic concentration)” value was found to be 27.9 µM.

As for `COc1ccc2cc3[n+](cc2c1OCC(=O)O)CCc1cc2c(cc1-3)OCO2` [2d-a, 2,3-Methylenedioxy-9-carboxylmethylenoxy-10-methoxy protoberberine chloride], the IC50 in data set [1] was 145 µM; in data set [2] it was 145 µM; in data set [3], greater than 145 µM; in data set [4] it was greater than 145 µM. Further, the “TC50 (median toxic concentration)” value in the data set with Vero cells was 437 µM. Further, the “anti-EV71 activity against H strain, in words” value (shortened to “anti-EV71 activity”) in data set [3] is recorded as “complete loss on the antivirus potency”.

With `COc1ccc2cc3[n+](cc2c1OCC(=O)c1ccc(C)cc1)CCc1cc2c(cc1-3)OCO2` [2e, 2,3-Methylenedioxy-9-p-tolylformylmethylenoxy-10-methoxy protoberberine chloride], the IC50 is 2.67 µM in data set [1], 2.23 µM in data set [2], greater than 5.31 µM in data set [3] and 2.84 µM in data set [4]. Also, the “TC50 (median toxic concentration)” value with Vero cells was found to be 14.4 µM.

For the molecule `COc1cccc(C(=O)COc2c(OC)ccc3cc4[n+](cc23)CCc2cc3c(cc2-4)OCO3)c1` [2f, 2,3-Methylenedioxy-9-m-methoxyphenylformylmethylenoxy-10-methoxy protoberberine chloride], the IC50 in data set [1] was 1.61 µM; in data set [2], 2.21 µM; in data set [3], greater than 5.33 µM; in data set [4] it was 1.85 µM. In addition, the “TC50 (median toxic concentration)” value in the data set with Vero cells was 9.22 µM.

Take `COc1ccc2cc3[n+](cc2c1OCC(=O)c1ccc(C(F)(F)F)cc1)CCc1cc2c(cc1-3)OCO2` [2g, 2,3-Methylenedioxy-9-p-trifloromethylphenylformylmethylenoxy-10-methoxy protoberberine chloride]: the IC50 in data set [1] is 11.9 µM; in data set [2], 10.6 µM; in data set [3] it was 15.8 µM; in data set [4], 12.3 µM. In the data set with Vero cells, the “TC50 (median toxic concentration)” value was 54.9 µM.

Consider `COc1ccc2cc3[n+](cc2c1OC(=O)OCc1ccccc1)CCc1cc2c(cc1-3)OCO2` [2h, 2,3-Methylenedioxy-9-benzyloxyformyloxy-10-methoxy protoberberine chloride], for which the IC50 is greater than 47.9 µM in data set [1], 47.9 µM in data set [2], greater than 47.9 µM in data set [3] and greater than 47.9 µM in data set [4]. Also, the “TC50 (median toxic concentration)” value with Vero cells is 124 µM. Further, in data set [3], the “anti-EV71 activity” value is listed as “obvious decreased activity”.

`CCOC(=O)Oc1c(OC)ccc2cc3[n+](cc12)CCc1cc2c(cc1-3)OCO2` [2i, 2,3-Methylenedioxy-9-ethyloxyformyloxy-10-methoxy protoberberine chloride]: the IC50 in data set [1] was 43.6 µM; in data set [2] it was 33.6 µM; in data set [3] it was 31.1 µM; in data set [4] it was 45.7 µM. Besides, the “TC50 (median toxic concentration)” value in the data set on Vero cells worked out at 167 µM. Moreover, the “anti-EV71 activity” value in data set [3] is recorded as “obvious decreased activity”.

Turning to `CCOC(=O)COc1c(OC)ccc2cc3[n+](cc12)CCc1cc(OC)c(OC)cc1-3` [4a, 2,3,10-Trimethoxy-9-ethyloxyformylmethylenoxy protoberberine chloride], the IC50 in data set [1] is greater than 144 µM; in data set [2], greater than 144 µM; in data set [3], 144 µM; in data set [4] it was greater than 144 µM. The “TC50 (median toxic concentration)” value with Vero cells stood at 434 µM.

Regarding `COc1cc2c(cc1OC)-c1cc3ccc(OC)c(OCC(=O)C(C)(C)C)c3c[n+]1CC2` [4b, 2,3,10-Trimethoxy-9-pivalylmethylenoxy protoberberine chloride], the IC50 is 109 µM in data set [1], 144 µM in data set [2], greater than 144 µM in data set [3] and greater than 144 µM in data set [4]. For the same molecule, the “TC50 (median toxic concentration)” value in the data set on Vero cells was determined as 333 µM.

For `COc1cc2c(cc1OC)-c1cc3ccc(OC)c(OCC(=O)OCc4ccccc4)c3c[n+]1CC2` [4c, 2,3,10-Trimethoxy-9-benzyloxyformylmethylenoxy protoberberine chloride], the IC50 in data set [1] is 99.3 µM; in data set [2], 81.1 µM; in data set [3], greater than 143 µM; in data set [4], greater than 143 µM. The “TC50 (median toxic concentration)” value in the data set on Vero cells worked out at 452 µM.

As to `COc1cc2c(cc1OC)-c1cc3ccc(OC)c(OCC(=O)c4ccc(C)cc4)c3c[n+]1CC2` [4d, 2,3,10-Trimethoxy-9-p-tolylformylmethylenoxy protoberberine chloride], the IC50 in data set [1] is 44.2 µM; in data set [2], 44.2 µM; in data set [3], greater than 15.9 µM; in data set [4], greater than 47.8 µM. Further, in the data set on Vero cells, the “TC50 (median toxic concentration)” value came to 50.0 µM.

For `COc1cccc(C(=O)COc2c(OC)ccc3cc4[n+](cc23)CCc2cc(OC)c(OC)cc2-4)c1` [4e, 2,3,10-Trimethoxy-9-m-methoxyphenylformylmethylenoxy protoberberine chloride], the IC50 in data set [1] is 19.4 µM; in data set [2], 17.1 µM; in data set [3] it was 13.6 µM; in data set [4], 27.6 µM. Further, in the data set on Vero cells, the “TC50 (median toxic concentration)” value was 143 µM. The “anti-EV71 activity” value in data set [3] is reported as “comparable activity to BBR”.

Regarding `COc1cc2c(cc1OC)-c1cc3ccc(OC)c(OCC(=O)c4ccc(C(F)(F)F)cc4)c3c[n+]1CC2` [4f, 2,3,10-Trimethoxy-9-p-trifloromethylphenylformylmethylenoxy protoberberine chloride], the IC50 was 54.2 µM in data set [1], 66 µM in data set [2], 82.2 µM in data set [3] and 82.2 µM in data set [4]. In the data set on Vero cells, the “TC50 (median toxic concentration)” value stood at 306 µM.

On to `COc1cc2c(cc1OC)-c1cc3ccc(OC)c(OC(=O)OCc4ccccc4)c3c[n+]1CC2` [4g, 2,3,10-Trimethoxy-9-benzyloxyformyloxy protoberberine chloride], for which the IC50 in data set [1] is 129 µM; in data set [2], greater than 143 µM; in data set [3], greater than 143 µM; in data set [4], greater than 143 µM. In addition, the “TC50 (median toxic concentration)” value with Vero cells turned out to be 351 µM.

Turning to `CCOC(=O)COc1cc2c(cc1OC)-c1cc3ccc(OC)c(OC)c3c[n+]1CC2` [5a, 2,9,10-Trimethoxy-3-ethyloxyformylmethylenoxy protoberberine chloride], the IC50 in data set [1] was 109 µM; in data set [2], 125 µM; in data set [3] it was 130 µM; in data set [4], 144 µM. Besides, the “TC50 (median toxic concentration)” value with Vero cells was determined as 250 µM.
